Test system: GNS166 cells
Assay: Label-free proteomics differential expression
Assay type: cell-based, human
Procedure: Proteomic studies were performed by the Proteomics Facility of the CIC bioGUNE by label-free relative quantification on nLC MS/MS. […] In both approaches, the top 20 enriched terms were plotted and the pathways were clustered using divisive hierarchical clustering based on pairwise Jaccard distances.

C#CCN(Cc1cc2cc(OCCCN3CCCCC3)ccc2n1S(=O)(=O)c1ccccc1)C(=O)CCCCCCC(=O)NO [DDI]
LogFC SC61G_HUMAN (protein P60059): -0.7245
Direction S61A1_HUMAN (protein P61619): Down
LogFC S61A1_HUMAN (protein P61619): -0.5192
LogFC NPC2_HUMAN (protein P61916 GN=NPC2): 2.258
Direction RS7_HUMAN (protein P62081): Down
LogFC RS7_HUMAN (protein P62081): -0.4241
Direction PRS4_HUMAN (protein P62191): Down
LogFC PRS4_HUMAN (protein P62191): -0.4147
LogFC RS8_HUMAN (protein P62241 GN=RPS8): -0.4178
LogFC VISL1_HUMAN (protein P62760 GN=VSNL1): 1.015
LogFC RS15_HUMAN (protein P62841 GN=RPS15): -0.6326
LogFC GNAI1_HUMAN (protein P63096 GN=GNAI1): 2.584
Direction DYL1_HUMAN (protein P63167): Down
LogFC DYL1_HUMAN (protein P63167): -0.5083
LogFC YBOX1_HUMAN (protein P67809 GN=YBX1): -0.6246
Direction EF1A1_HUMAN (protein P68104): Down
LogFC EF1A1_HUMAN (protein P68104): -0.2726
Direction H31_HUMAN (protein P68431): Down
LogFC H31_HUMAN (protein P68431): -4.298
Direction IF4G2_HUMAN (protein P78344): Down
LogFC IF4G2_HUMAN (protein P78344): -0.799
Direction GTF2I_HUMAN (protein P78347): Down
LogFC GTF2I_HUMAN (protein P78347): -2.48
LogFC JAG1_HUMAN (protein P78504 GN=JAG1): 1.553
LogFC GABT_HUMAN (protein P80404 GN=ABAT): 1.722
LogFC HMGN5_HUMAN (protein P82970 GN=HMGN5): 1.669
LogFC NEXN_HUMAN (protein Q0ZGT2 GN=NEXN): 1.075
Direction ERC6L_HUMAN (protein Q2NKX8): Down
LogFC ERC6L_HUMAN (protein Q2NKX8): -1.52
Direction TSR1_HUMAN (protein Q2NL82): Down
LogFC TSR1_HUMAN (protein Q2NL82): -0.7691
Direction QRIC1_HUMAN (protein Q2TAL8): Down
LogFC QRIC1_HUMAN (protein Q2TAL8): -0.7876
Direction RABL6_HUMAN (protein Q3YEC7): Down
LogFC RABL6_HUMAN (protein Q3YEC7): -0.9067
LogFC CCD58_HUMAN (protein Q4VC31 GN=CCDC58): 2.085
LogFC TM41B_HUMAN (protein Q5BJD5 GN=TMEM41B): 1.572
Direction MEST_HUMAN (protein Q5EB52): Down
LogFC MEST_HUMAN (protein Q5EB52): -1.179
LogFC EMC4_HUMAN (protein Q5J8M3 GN=EMC4): 0.9113
LogFC HABP4_HUMAN (protein Q5JVS0 GN=HABP4): 1.16
Direction S27A3_HUMAN (protein Q5K4L6): Down
LogFC S27A3_HUMAN (protein Q5K4L6): -1.576
Direction CAF17_HUMAN (protein Q5T440): Down
LogFC CAF17_HUMAN (protein Q5T440): -1.623
LogFC FRY_HUMAN (protein Q5TBA9 GN=FRY): 0.4095
Direction CDKAL_HUMAN (protein Q5VV42): Down
LogFC CDKAL_HUMAN (protein Q5VV42): -0.9728
LogFC LYPL1_HUMAN (protein Q5VWZ2 GN=LYPLAL1): 2.901
Direction ECM29_HUMAN (protein Q5VYK3): Down
LogFC ECM29_HUMAN (protein Q5VYK3): -1.336
Direction P4R3A_HUMAN (protein Q6IN85): Down
LogFC P4R3A_HUMAN (protein Q6IN85): -0.9894
Direction NEPRO_HUMAN (protein Q6NW34): Down
LogFC NEPRO_HUMAN (protein Q6NW34): -2.0501
Direction CAVN1_HUMAN (protein Q6NZI2): Down
LogFC CAVN1_HUMAN (protein Q6NZI2): -0.9705
Direction PRP8_HUMAN (protein Q6P2Q9): Down
LogFC PRP8_HUMAN (protein Q6P2Q9): -0.5767
LogFC PDXD1_HUMAN (protein Q6P996 GN=PDXDC1): -1.201
LogFC MDEAS_HUMAN (protein Q6PJG2 GN=MIDEAS): -1.368
LogFC TMED8_HUMAN (protein Q6PL24 GN=TMED8): 1.071
LogFC F111B_HUMAN (protein Q6SJ93 GN=FAM111B): 1.175
Direction MCAF1_HUMAN (protein Q6VMQ6): Down
LogFC MCAF1_HUMAN (protein Q6VMQ6): -0.5577
Direction DNMBP_HUMAN (protein Q6XZF7): Down
LogFC DNMBP_HUMAN (protein Q6XZF7): -1.235
LogFC HSDL2_HUMAN (protein Q6YN16 GN=HSDL2): 0.7277
Direction NFXL1_HUMAN (protein Q6ZNB6): Down
LogFC NFXL1_HUMAN (protein Q6ZNB6): -0.9938
Direction QSOX2_HUMAN (protein Q6ZRP7): Down
LogFC QSOX2_HUMAN (protein Q6ZRP7): -1.536
LogFC SRCAP_HUMAN (protein Q6ZRS2 GN=SRCAP): -1.996
Direction CCD9B_HUMAN (protein Q6ZUT6): Down
LogFC CCD9B_HUMAN (protein Q6ZUT6): -1.697
LogFC SND1_HUMAN (protein Q7KZF4 GN=SND1): 0.6224
LogFC SV2A_HUMAN (protein Q7L0J3 GN=SV2A): 0.9586
Direction CYFP1_HUMAN (protein Q7L576): Down
LogFC CYFP1_HUMAN (protein Q7L576): -0.7029
Direction POGZ_HUMAN (protein Q7Z3K3): Down
LogFC POGZ_HUMAN (protein Q7Z3K3): -1.413
LogFC MON2_HUMAN (protein Q7Z3U7 GN=MON2): -0.4314
Direction KI21A_HUMAN (protein Q7Z4S6): Down
LogFC KI21A_HUMAN (protein Q7Z4S6): -1.343
Direction CAMP2_HUMAN (protein Q08AD1): Down
LogFC CAMP2_HUMAN (protein Q08AD1): -0.4479
LogFC H2A2B_HUMAN (protein Q8IUE6 GN=H2AC21): -0.9956
LogFC RIOX2_HUMAN (protein Q8IUF8 GN=RIOX2): -1.969
LogFC ARMC8_HUMAN (protein Q8IUR7 GN=ARMC8): -2.228
Direction CEP97_HUMAN (protein Q8IW35): Down
LogFC CEP97_HUMAN (protein Q8IW35): -0.4382
LogFC LRC8A_HUMAN (protein Q8IWT6 GN=LRRC8A): -0.7869
Direction CCAR1_HUMAN (protein Q8IX12): Down
LogFC CCAR1_HUMAN (protein Q8IX12): -0.6634
Direction RAVR1_HUMAN (protein Q8IY67): Down
LogFC RAVR1_HUMAN (protein Q8IY67): -2.239
LogFC SMAP1_HUMAN (protein Q8IYB5 GN=SMAP1): -0.6906
Direction TRI22_HUMAN (protein Q8IYM9): Down
LogFC TRI22_HUMAN (protein Q8IYM9): -2.3161
LogFC LRC47_HUMAN (protein Q8N1G4 GN=LRRC47): -0.5175
LogFC PIAS4_HUMAN (protein Q8N2W9 GN=PIAS4): 0.8535
Direction ASCC3_HUMAN (protein Q8N3C0): Down
LogFC ASCC3_HUMAN (protein Q8N3C0): -0.4031
Direction MILK1_HUMAN (protein Q8N3F8): Down
LogFC MILK1_HUMAN (protein Q8N3F8): -1.876
LogFC DHRSX_HUMAN (protein Q8N5I4 GN=DHRSX): -1.799
LogFC ARFG2_HUMAN (protein Q8N6H7 GN=ARFGAP2): -2.652
LogFC FITM2_HUMAN (protein Q8N6M3 GN=FITM2): 1.422
Direction INT1_HUMAN (protein Q8N201): Down
LogFC INT1_HUMAN (protein Q8N201): -1.252
Direction CPSF7_HUMAN (protein Q8N684): Down
LogFC CPSF7_HUMAN (protein Q8N684): -0.7682
Direction CGAS_HUMAN (protein Q8N884): Down
LogFC CGAS_HUMAN (protein Q8N884): -1.895
LogFC PR38A_HUMAN (protein Q8NAV1 GN=PRPF38A): 1.096

From paper PMC11971462, “Generation and validation of a novel multitarget small molecule in glioblastoma” (Cell Death & Disease, 2025)
